Data taken from patent US20050101595A1, “N-containing cycloalkyl-substituted amino-thiazole derivatives and pharmaceutical compositions for inhibiting cell proliferation and methods for their use” (PFIZER INC., priority 2003, published 2005).
Like-named read-outs stand apart in the source and are kept apart here. Values belong to the compound of their own block, whether it stands above or below them.

Tests used:
[1] = molecular target: human CDK4 and genetically truncated (1-264) cyclin D3 (Homo sapiens, UniProt P11802); assay: Inhibition of CDK4/Cyclin D Retinoblastoma Kinase Activity; format: biochemical; conditions: for Ki: apparent Ki, CDK4/truncated cyclin D3, Rb fragment substrate, 25 μM ATP
Sequence of human CDK4 and genetically truncated (1-264) cyclin D3 (P11802 whole entry, the tested form may be a part): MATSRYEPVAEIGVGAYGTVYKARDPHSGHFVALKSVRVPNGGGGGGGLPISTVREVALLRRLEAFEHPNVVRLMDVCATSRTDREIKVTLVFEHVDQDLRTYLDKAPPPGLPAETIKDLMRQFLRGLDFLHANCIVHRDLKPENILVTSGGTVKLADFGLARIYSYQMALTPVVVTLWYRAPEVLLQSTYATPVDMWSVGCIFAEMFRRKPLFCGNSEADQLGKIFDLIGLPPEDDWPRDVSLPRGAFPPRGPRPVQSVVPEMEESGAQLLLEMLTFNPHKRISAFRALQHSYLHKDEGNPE
Sequence of human CDK4 and genetically truncated (1-264) cyclin D3 (P30281 1-264 partner): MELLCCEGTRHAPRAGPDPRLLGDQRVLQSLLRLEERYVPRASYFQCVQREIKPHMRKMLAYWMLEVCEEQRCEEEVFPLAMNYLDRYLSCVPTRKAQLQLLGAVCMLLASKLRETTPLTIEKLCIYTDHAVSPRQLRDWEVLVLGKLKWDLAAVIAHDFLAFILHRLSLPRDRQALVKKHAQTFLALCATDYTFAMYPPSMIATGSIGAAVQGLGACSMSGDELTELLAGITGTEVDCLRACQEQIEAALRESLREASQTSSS
In short: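 Human CDK4/truncated cyclin D3 (1-264) complex from baculovirus-infected insect cells, 5 nM, phosphorylating Rb fragment (residues 386-928, His-tagged) with 25 μM [32/33P]ATP in HEPES pH 7.4, MgCl2, 2% DMSO at 30° C. for 20 min (60 min for tight binders). Filter-captured radioactivity by phosphorimager; apparent Ki from competitive or tight-binding fits.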

CDK2/Cyclin A = CDK2/Cyclin A (Homo sapiens, UniProt P24941); assay: Inhibition of CDK2/Cyclin A Retinoblastoma Kinase Activity; format: biochemical; conditions: for CDK2 % Inhibition At 0.03 μM: Table 2; for Ki: apparent Ki, CDK2/proteolyzed cyclin A, Rb fragment substrate, 25 μM ATP
In short: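 Baculovirus-expressed CDK2 complexed with proteolyzed cyclin A (10 or 19 nM), Rb fragment substrate, 25 μM [32P/33P]ATP, HEPES pH 7.4, 30 °C for 60 or 75 min under initial-rate conditions. Filter capture and phosphorimager readout; apparent Ki fitted to competitive or tight-binding competitive inhibition.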

HCT-116 cell line = assay: Inhibition of cell growth, tetrazolium salt (MTT) assay; format: cell-based; conditions: for HCT-116 % Inhibition at 0.25 μM: 0.25 μM compound; for IC50: Homo sapiens, HCT-116, 120 h, MTT, three to five days, read-out: HCT-116 IC50
In short: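 First, cells were seeded in McCoy's 5A medium and held 4 h. Next, inhibitor concentrations in 0.5% (v/v) DMSO were applied for three to five days at 37° C, 5% CO2. Finally, after 4 h with 0.2 mg/mL MTT and medium removal, solubilized formazan was measured at 540 nm.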

[2] = 0.1 μM compound, HCT-116, Table 3

- CDK4 % Inhibition at 0.03 μM ([1]; 0.03 μM compound, Table 3): 70%
- CDK2 % Inhibition at 0.03 μM (CDK2/Cyclin A; 0.03 μM compound, Table 3): 64%
Compound: Nc1nc(NC2CCN(S(=O)(=O)c3cccs3)CC2)sc1C(=O)c1c(F)cccc1F [Example P5]
- HCT-116 % Inhibition at 0.1 μM (HCT-116 cell line; [2]): 27%
- HCT-116 % Inhibition at 0.25 μM (HCT-116 cell line; HCT-116, Table 3): 32%

- CDK4 % Inhibition at 0.03 μM ([1]; 0.03 μM compound, Table 2): 7%
- CDK2 % Inhibition At 0.03 μM (CDK2/Cyclin A; 0.03 μM compound): 32%
Compound: Nc1nc(NC2CCN(C(=O)Nc3cc(Cl)nc(Cl)c3)CC2)sc1C(=O)c1c(F)cccc1F [Example O64]
- HCT-116 % Inhibition at 0.25 μM (HCT-116 cell line; HCT-116, Table 2): 37%

- CDK4 % Inhibition at 0.03 μM ([1]; 0.03 μM compound, Table 3): 25%
- CDK2 % Inhibition at 0.03 μM (CDK2/Cyclin A; 0.03 μM compound, Table 3): −11%
Compound: [N-]=[N+]=C1C=C(S(=O)(=O)N2CCC(Nc3nc(N)c(C(=O)c4c(F)cccc4F)s3)CC2)c2ccccc2C1=O [Example P83]
- HCT-116 % Inhibition at 0.1 μM (HCT-116 cell line; [2]): 10%
- HCT-116 % Inhibition at 0.25 μM (HCT-116 cell line; HCT-116, Table 3): 26%

- CDK4 % Inhibition at 0.03 μM ([1]; 0.03 μM compound, Table 3): 1%
- CDK2 % Inhibition at 0.03 μM (CDK2/Cyclin A; 0.03 μM compound, Table 3): −28%
Compound: CCCCOc1ccc(C(C)(C)CC(C)(C)C)cc1S(=O)(=O)N1CCC(Nc2nc(N)c(C(=O)c3c(F)cccc3F)s2)CC1 [Example P73]
- HCT-116 % Inhibition at 0.1 μM (HCT-116 cell line; [2]): 16%
- HCT-116 % Inhibition at 0.25 μM (HCT-116 cell line; HCT-116, Table 3): 30%

- CDK4 % Inhibition at 0.03 μM ([1]; 0.03 μM compound, Table 2): 12%
- CDK2 % Inhibition At 0.03 μM (CDK2/Cyclin A; 0.03 μM compound): 31%
Compound: CN1C(=O)c2ccc(NC(=O)N3CCC(Nc4nc(N)c(C(=O)c5c(F)cccc5F)s4)CC3)cc2C1=O [Example O88]
- HCT-116 % Inhibition at 0.25 μM (HCT-116 cell line; HCT-116, Table 2): 45%

- Ki [1]: > 2000 nM
- Ki (CDK2/Cyclin A): > 2000 nM
- IC50 (HCT-116 cell line; first HCT-116 column (c4)): > 5000 nM
- IC50 (HCT-116 cell line; second HCT-116 column (c5)): > 5000 nM
Compound: Nc1nc(NC2CN(C(c3ccccc3)c3ccccc3)C2)sc1C(=O)c1c(F)cccc1F [Example A14, [4-Amino-2-(1-benzhydryl-azetidin-3-ylamino)-thiazol-5-yl]-(2,6-difluoro-phenyl)-methanone]

- CDK4 % Inhibition at 0.03 μM ([1]; 0.03 μM compound, Table 4): 30%
- CDK2 % Inhibition at 0.03 μM (CDK2/Cyclin A; 0.03 μM compound, Table 4): 16%
Compound: Nc1nc(NC2CCN(C(=O)Cc3ccccc3)CC2)sc1C(=O)c1c(F)cccc1F [Example Q43]
- HCT-116 % Inhibition at 0.1 μM (HCT-116 cell line; 0.1 μM compound, HCT-116, Table 4): 0%
- HCT-116 % Inhibition at 0.25 μM (HCT-116 cell line; HCT-116, Table 4): 24%

- CDK4 % Inhibition at 0.03 μM ([1]; at 0.03 μM): 12%
- CDK2 % Inhibition at 0.03 μM (CDK2/Cyclin A; at 0.03 μM): −29%
Compound: COC(C(=O)N1CCC(Nc2nc(N)c(C(=O)c3c(F)cccc3F)s2)CC1)(c1ccccc1)C(F)(F)F (stereo not drawn) [Example R16]
- HCT-116 % Inhibition at 0.1 μM (HCT-116 cell line; HCT-116 cells, at 0.1 μM): 6%
- HCT-116 5 Inhibition at 0.25 μM (HCT-116 cell line; HCT-116 cells): 41

- CDK4 % Inhibition at 0.03 μM ([1]; at 0.03 μM): 59%
- CDK2 % Inhibition at 0.03 μM (CDK2/Cyclin A; at 0.03 μM): 30%
Compound: Nc1nc(NC2CCN(C(=O)c3ccc(F)cc3)CC2)sc1C(=O)c1c(F)cccc1F [Example R143]
- HCT-116 % Inhibition at 0.1 μM (HCT-116 cell line; HCT-116 cells, at 0.1 μM): 0%
- HCT-116 5 Inhibition at 0.25 μM (HCT-116 cell line; HCT-116 cells): 40

- CDK4 % Inhibition at 0.03 μM ([1]; at 0.03 μM): 5%
- CDK2 % Inhibition at 0.03 μM (CDK2/Cyclin A; at 0.03 μM): 3%
Compound: Nc1nc(NC2CCN(C(=O)C3CC3)CC2)sc1C(=O)c1c(F)cccc1F [Example R89]
- HCT-116 % Inhibition at 0.1 μM (HCT-116 cell line; HCT-116 cells, at 0.1 μM): 0%
- HCT-116 5 Inhibition at 0.25 μM (HCT-116 cell line; HCT-116 cells): 46

- Ki [1]: 31 nM
- Ki (CDK2/Cyclin A): 81 nM
- IC50 (HCT-116 cell line; first HCT-116 column (c4)): 720 nM
- IC50 (HCT-116 cell line; second HCT-116 column (c5)): 1800 nM
Compound: Nc1nc(NC2CCN(C(=O)c3ccc(Br)cc3)CC2)sc1C(=O)c1c(F)cccc1F [Example D11]

- CDK4 % Inhibition at 0.03 μM ([1]; 0.03 μM compound, Table 2): 10%
- CDK2 % Inhibition At 0.03 μM (CDK2/Cyclin A; 0.03 μM compound): 28%
Compound: Cc1cc(C)c(NC(=O)N2CCC(Nc3nc(N)c(C(=O)c4c(F)cccc4F)s3)CC2)c(C)c1 [Example O55]
- HCT-116 % Inhibition at 0.25 μM (HCT-116 cell line; HCT-116, Table 2): 41%

- CDK4 % Inhibition at 0.03 μM ([1]; at 0.03 μM): 59%
- CDK2 % Inhibition at 0.03 μM (CDK2/Cyclin A; at 0.03 μM): 63%
Compound: COc1ccc(C=CC(=O)N2CCC(Nc3nc(N)c(C(=O)c4c(F)cccc4F)s3)CC2)c(Cl)c1OC [Example R61]
- HCT-116 % Inhibition at 0.1 μM (HCT-116 cell line; HCT-116 cells, at 0.1 μM): 0%
- HCT-116 5 Inhibition at 0.25 μM (HCT-116 cell line; HCT-116 cells): 37

- CDK4 % Inhibition at 0.03 μM ([1]; 0.03 μM compound, Table 3): 67%
- CDK2 % Inhibition at 0.03 μM (CDK2/Cyclin A; 0.03 μM compound, Table 3): 71%
Compound: Nc1nc(NC2CCN(S(=O)(=O)c3ccc(I)cc3)CC2)sc1C(=O)c1c(F)cccc1F [Example P16]
- HCT-116 % Inhibition at 0.1 μM (HCT-116 cell line; [2]): 34%
- HCT-116 % Inhibition at 0.25 μM (HCT-116 cell line; HCT-116, Table 3): 35%

- Ki [1]: 3 nM
- Ki (CDK2/Cyclin A): < 1 nM
- IC50 (HCT-116 cell line; first HCT-116 column (c4)): 160 nM
- IC50 (HCT-116 cell line; second HCT-116 column (c5)): 290 nM
Compound: COc1ccc(S(=O)(=O)N2CCC(Nc3nc(N)c(C(=O)c4c(F)cccc4F)s3)CC2)cc1OC [Example F8, 1-{4-Amino-2-[1-(3,4-dimethoxy-benzenesulfonyl)-piperidin-4-ylamino]-thiazol-5-yl}-1-(2,6-difluoro-phenyl)-methanone]
